US20240390369A1, “METHODS FOR DETERMINING RESPONSIVENESS TO TYK2 INHIBITORS” (Bristol-Myers Squibb Company, priority 2021, published 2024)

Tested on: patients with psoriatic arthritis
Assay: Phase 2 trial in psoriatic arthritis: ACR20 response at week 16
Type: in vivo, human
Settings: for ACR20 response rate over time: placebo, sixteen-week treatment period; for Odds Ratio, ACR20 response status / Odds Ratio for ACR20 response: All patients
Procedure: In a double-blind Phase 2 trial, 203 patients with psoriatic arthritis were randomized into three groups: deucravacitinib 6 mg once daily (N=70), deucravacitinib 12 mg once daily (N=67), or placebo (N=66). All subjects had active psoriatic arthritis according to the Classification Criteria for Psoriatic Arthritis (CASPAR); for active disease, these criteria required ≥3 tender joint count, ≥3 swollen joint count, and a C-reactive protein level above 3 mg/L. Other inclusion criteria included the following: presence of at least one plaque psoriasis lesion, and prior treatment failure with a non-biologic disease modifying anti-rheumatic drug, a non-steroidal anti-inflammatory drug, or a steroid. With respect to treatment history, approximately 70% of subjects had not received prior treatment with a biologic and were biologic naïve, while up to 30% of subjects had failed or had been intolerant to one TNF-inhibitor (TNF=Tumor necrosis factor, also known as TNFα). Randomization was stratified by prior TNF-inhibitor use (experienced/naïve) and body weight (<90 kg and ≥90 kg).
Clinical measures included the Psoriasis […] (PASI) score for skin psoriasis, American College of Rheumatology 20 (ACR20) response, Psoriatic Arthritis Disease Activity Score (PASDAS), Health Assessment Questionnaire-Disability Index (HAQ-DI), and Disease Activity Score 28 CRP (DAS28). To evaluate the predictive value of different protein measurements for the clinical response to deucravacitinib, baseline protein concentrations for responders and non-responders, as defined by ACR20 or PASI75 at week 16, were compared for each arm (placebo, 6 mg deucravacitinib once-daily, and 12 mg deucravacitinib once-daily).
Boxplots for baseline protein level by response were generated with a horizontal line indicating the median protein level at baseline. For each treatment arm, a two-sample t-test was performed to test whether mean baseline serum protein level was different in responders versus non-responders. A Wilcoxon rank sum test (Mann-Whitney U test) was also performed to evaluate the difference in median serum protein level between responders and non-responders. Further, barplots of ACR20 and PASI75 response rate at week 16 for each treatment arm were generated for all subjects (protein level high and protein level low subjects, dichotomized according to median baseline level). Line plots of ACR20 and PASI75 response rate over time for each treatment arm were generated for protein level high and protein level low groups. Logistic regression models were also fit to evaluate associations between baseline protein levels and clinical outcome.
For certain analyses described herein, patients were dichotomized by median values (e.g., of the proteins listed above or other measures) into “high” and “low” groups, such that the high group had values above the median and the low group had values less than or equal to the median.
In addition, logistic regression models were fit for response measures ACR20 and PASI75, to generate the odds ratio of each of the deucravacitinib treatment arms versus placebo, in BD2-high and BD2-low groups. The following logistic regression models were used: • For ACR20 response status: ACR20 (Y/N)=treatment arm+BD2 group+treatment arm*BD2 group+TNF-inhibitor use+baseline weight (continuous). • For PASI75 response status: PASI75 (Y/N)=treatment arm+BD2 group+treatment arm*BD2 group+TNF-inhibitor use+baseline weight (continuous). […] FIGS. 26-31 are forest plots summarizing the logistic regression results of these models (for BD2 and other biomarkers described herein); each “N,” for “Placebo” and “Deucrava,” represents the number of responders in that group. […]

[1] = 6 mg QD, Above median baseline CRP level
[2] = 6 mg QD, Below median baseline CRP level
[3] = 12 mg QD, Above median baseline CRP level
[4] = 12 mg QD, Below median baseline CRP level

## [2H]C([2H])([2H])NC(=O)c1nnc(NC(=O)C2CC2)cc1Nc1cccc(-c2ncn(C)n2)c1OC [deucravacitinib, 6-(cyclopropanecarboxamido)-4-((2-methoxy-3-(1-methyl-1H-1,2,4-triazol-3-yl)phenyl)amino)-N-(methyl-d3)pyridazine-3-carboxamide]
6 mg QD vs placebo: BD2 high versus BD2 low, week 16
  Interaction Term for ACR20 response (ratio of odds ratios): 3.16
6 mg QD vs placebo: CRP high versus CRP low
  Interaction Term: treatment arm*CRP group, ACR20: 0.786
6 mg QD vs placebo: CRP-high versus CRP-low, adjusted for baseline DAS28
  Interaction Term: treatment arm*CRP group, ACR20: 0.788
6 mg QD vs placebo: IL-17A high versus IL-17A low, week 16
  Interaction Term for ACR20 response (ratio of odds ratios): 3.10
6 mg QD vs placebo: IL-19 high versus IL-19 low, week 16
  Interaction Term for ACR20 response (ratio of odds ratios): 3.33
6 mg QD, 12 mg QD, BD2-high and BD2-low groups (FIG. 10)
  ACR20 response rate over time: higher ACR20 response rates to deucravacitinib over time, compared to the response rate in the placebo arm, were observed in the BD2-high group but not in the BD2-low group
6 mg QD, 12 mg QD, CRP-high and CRP-low groups (FIG. 41)
  ACR20 response rate over time: higher response rates than the placebo arm
6 mg QD, 12 mg QD, IL-17A-high and IL-17A-low groups (FIG. 24)
  ACR20 response rate over time: higher ACR20 response rates over time were observed in the deucravacitinib treatment arms compared to placebo in IL-17A-high but not in IL-17A-low groups
6 mg QD, 12 mg QD, IL-19-high and IL-19-low groups (FIG. 17)
  ACR20 response rate over time: higher ACR20 response rates to deucravacitinib over time compared to placebo were observed in IL-19-high but not in IL-19-low groups
6 mg QD, ACR20 non-responder at week 16, above median baseline BD2 level
  Number of subjects: 20
6 mg QD, ACR20 non-responder at week 16, above median baseline IL-17A level
  Number of subjects: 14
6 mg QD, ACR20 non-responder at week 16, above median baseline IL-19 level
  Number of subjects: 17
6 mg QD, ACR20 non-responder at week 16, below median baseline BD2 level
  Number of subjects: 14
6 mg QD, ACR20 non-responder at week 16, below median baseline IL-17A level
  Number of subjects: 19
6 mg QD, ACR20 non-responder at week 16, below median baseline IL-19 level
  Number of subjects: 16
6 mg QD, ACR20 responder at week 16, above median baseline IL-17A level
  Number of subjects: 21
6 mg QD, ACR20 responder at week 16, above median baseline IL-19 level
  Number of subjects: 21
6 mg QD, ACR20 responder at week 16, below median baseline BD2 level
  Number of subjects: 7
6 mg QD, ACR20 responder at week 16, below median baseline IL-17A level
  Number of subjects: 16
6 mg QD, ACR20 responder at week 16, below median baseline IL-19 level
  Number of subjects: 16
[1]
  Number of subjects, ACR20 Non-responder at week 16: 17
  Number of subjects, ACR20 Responder at week 16: 19
[2]
  Number of subjects, ACR20 Non-responder at week 16: 16
  Number of subjects, ACR20 Responder at week 16: 18
12 mg QD vs placebo: BD2 high versus BD2 low, week 16
  Interaction Term for ACR20 response (ratio of odds ratios): 3.40
12 mg QD vs placebo: CRP high versus CRP low
  Interaction Term: treatment arm*CRP group, ACR20: 1.921
12 mg QD vs placebo: CRP-high versus CRP-low, adjusted for baseline DAS28
  Interaction Term: treatment arm*CRP group, ACR20: 1.930
12 mg QD vs placebo: IL-17A high versus IL-17A low, week 16
  Interaction Term for ACR20 response (ratio of odds ratios): 2.78
12 mg QD vs placebo: IL-19 high versus IL-19 low, week 16
  Interaction Term for ACR20 response (ratio of odds ratios): 7.35
12 mg QD, ACR20 non-responder at week 16, above median baseline BD2 level
  Number of subjects: 10
12 mg QD, ACR20 non-responder at week 16, above median baseline IL-19 level
  Number of subjects: 7
12 mg QD, ACR20 non-responder at week 16, below median baseline BD2 level
  Number of subjects: 11
12 mg QD, ACR20 non-responder at week 16, below median baseline IL-17A level
  Number of subjects: 15
12 mg QD, ACR20 non-responder at week 16, below median baseline IL-19 level
  Number of subjects: 17
12 mg QD, ACR20 responder at week 16, above median baseline BD2 level
  Number of subjects: 20
12 mg QD, ACR20 responder at week 16, above median baseline IL-19 level
  Number of subjects: 21
12 mg QD, ACR20 responder at week 16, below median baseline BD2 level
  Number of subjects: 10
12 mg QD, ACR20 responder at week 16, below median baseline IL-19 level
  Number of subjects: 20
[3]
  Number of subjects, ACR20 Non-responder at week 16: 9
  Number of subjects, ACR20 Responder at week 16: 24
[4]
  Number of subjects, ACR20 Non-responder at week 16: 16
  Number of subjects, ACR20 Responder at week 16: 18
6 mg QD vs placebo, not adjusted for baseline disease activity
  Odds Ratio, ACR20 response status: 2.456
6 mg QD vs placebo, week 16
  Odds Ratio for ACR20 response: 2.46
6 mg QD vs placebo, week 16, adjusted for baseline DAS28
  Odds Ratio, ACR20 response status: 2.443
12 mg QD vs placebo, not adjusted for baseline disease activity
  Odds Ratio, ACR20 response status: 3.609
12 mg QD vs placebo, week 16
  Odds Ratio for ACR20 response: 3.61
12 mg QD vs placebo, week 16, adjusted for baseline DAS28
  Odds Ratio, ACR20 response status: 3.618
Deucravacitinib treatment arms combined vs placebo, week 16
  Odds Ratio for ACR20 response: 2.961
Treatment arms combined vs placebo
  Odds Ratio, ACR20 response status: 2.961
